The conditions of data set [1]: in vivo.
Description: On day 21, samples were taken until 8 h post-dose; the day 22 predose sample was used as the 24 h sample of day 21. […] Peak plasma concentrations (Cmax), overall drug exposure (AUC), and terminal plasma half-life (t½) were calculated using noncompartmental methods using WinNonlin Professional software (version 4.1, Pharsight Corporation, St Louis, MO, USA). Pharmacokinetics analysis, with reference to possible interactions, was descriptive.
Data set [2] has as its system intracellular aminopeptidases. To be noted: cited from earlier work.
On the set-up of data set [3]: method as in Talmadge et al, 1986; Ichinose et al, 2003. Particulars: ref Talmadge et al, 1986; Ichinose et al, 2003; cited from earlier work.

With `CC(C)C[C@@H](C(=O)N[C@H](C(=O)O)c1ccccc1)[C@H](O)C(=O)NO` [CHR-79888], the “overall exposure versus dose” value in data set [1] is on record as “increased in a dose proportional manner”. The “inhibition of intracellular aminopeptidases” value in data set [2] is on record as “potent inhibitor”. Consider `CC(C)C[C@H](NC(=O)[C@@H](O)[C@H](N)Cc1ccccc1)C(=O)O` [bestatin], for which the immunostimulatory activity result in data set [3] was “immunostimulatory activity has been described”.

Source of the values: PMC2990605 (British Journal of Cancer, 2010).
